Assay results reported in patent US6472348B1, “Pyridone derivatives and herbicides” (Kumiai Chemical Industry Co., Ltd., priority 1996, dated 2002).

Key:
Format in all cases: in vivo
[1] = test system: barnyardgrass (Ec); assay: Test Example 1: herbicidal effects by paddy field soil treatment; conditions: 100 g of the active ingredient per 10 ares, 21st day after the application, index 0-5 of Table 47;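 further: grade of growth control; 5 = at least 90%; 4 = 70 to 90%; 3 = 50 to 70%; 2 = 30 to 50%; 1 = 10 to 30%; 0 = under 10%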
How it was run: (§1)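 Greenhouse pot test in flooded paddy soil, dosed at 100 g a.i. per 10 ares; effect scored on day 21.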

[2] = test system: bulrush (Sc); assay: as above; conditions: 100 g of the active ingredient per 10 ares, 21st day after the application, index 0-5 of Table 47;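 further: grade of growth control; 5 = at least 90%; 4 = 70 to 90%; 3 = 50 to 70%; 2 = 30 to 50%; 1 = 10 to 30%; 0 = under 10%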
How it was run: as §1

[3] = test system: monochoria (Mo); assay: as above; conditions: 100 g of the active ingredient per 10 ares, 21st day after the application, index 0-5 of Table 47;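 further: grade of growth control; 5 = at least 90%; 4 = 70 to 90%; 3 = 50 to 70%; 2 = 30 to 50%; 1 = 10 to 30%; 0 = under 10%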
How it was run: as §1

[4] = test system: Digitaria ciliaris (Di); assay: Test Example 2: herbicidal effects by upland field soil treatment; conditions: 100 g of the active ingredient per 10 ares, evaluated on the 21st day after application;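 further: grade of growth control; 5 = at least 90%; 4 = 70 to 90%; 3 = 50 to 70%; 2 = 30 to 50%; 1 = 10 to 30%; 0 = under 10%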
Source text: (§2) (Test on Herbicidal Effects by Upland Field Soil Treatment)

[5] = test system: barnyardgrass (Ec); assay: as above; conditions: 100 g of the active ingredient per 10 ares, evaluated on the 21st day after application
Source text: as §2

[6] = test system: common lambsquarters (Ch); assay: as above; conditions: 100 g of the active ingredient per 10 ares, evaluated on the 21st day after application
Source text: as §2

[7] = test system: pale smartweed (Po); assay: as above; conditions: 100 g of the active ingredient per 10 ares, evaluated on the 21st day after application
Source text: as §2

[8] = test system: rice flatsedge (Ci); assay: as above; conditions: 100 g of the active ingredient per 10 ares, evaluated on the 21st day after application
Source text: as §2

[9] = test system: slender amaranth (Am); assay: as above; conditions: 100 g of the active ingredient per 10 ares, evaluated on the 21st day after application
Source text: as §2

[10] = test system: Diaitaria ciliaris (Di); assay: Test Example 3: herbicidal effects by upland field foliage treatment; parameters: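 grade of growth control; 5 = at least 90%; 4 = 70 to 90%; 3 = 50 to 70%; 2 = 30 to 50%; 1 = 10 to 30%; 0 = under 10%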; conditions: 100 g active ingredient per 10 ares, evaluated 14th day after treatment
How it was run: (§3)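 Two-week-old greenhouse seedlings, raised in sand-filled pots (120 cm^2) with seed covered by soil, receive a foliar application. Effects are then evaluated by standard grades 14 days later, plants remaining in the greenhouse meanwhile.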

[11] = test system: barnyardgrass (Ec); assay: as above; parameters: scale not given here; conditions: 100 g active ingredient per 10 ares, evaluated 14th day after treatment
How it was run: as §3

[12] = test system: common lambsquarters (Ch); assay: as above; parameters: scale not given here; conditions: 100 g active ingredient per 10 ares, evaluated 14th day after treatment
How it was run: as §3

[13] = test system: pale smartweed (Po); assay: as above; parameters: scale not given here; conditions: 100 g active ingredient per 10 ares, evaluated 14th day after treatment
How it was run: as §3

[14] = test system: rice flatsedge (Ci); assay: as above; parameters: scale not given here; conditions: 100 g active ingredient per 10 ares, evaluated 14th day after treatment
How it was run: as §3

[15] = test system: slender amaranth (Am); assay: as above; parameters: scale not given here; conditions: 100 g active ingredient per 10 ares, evaluated 14th day after treatment
How it was run: as §3

[16] = test system: cotton (Go); assay: Test Example 4: crop plant selectivity by upland field soil treatment (cotton), phytotoxicity; parameters: scale not given here; conditions: dose 6.3 g ai/10 a, evaluated 21st day after application
Protocol: (§4) (Test on Crop Plant Selectivity by Upland Field Soil Treatment)
(§5) In a plastic pot (surface area: 600 cm^2) filled with sand, cotton (Go), Diaitaria ciliaris (Di), green foxtail (Se), pale smartweed (Po), slender amaranth (Am), common lambsquarters (Ch) and China jute (Ab) were sown and covered with soil. […] The plants were then cultured in a green house, and the evaluation of the herbicidal effects and phytotoxicity was conducted on the 21st day after the application in accordance with the standards as identified in Table 47. Symbol—represents “not tested”.

[17] = test system: China jute (Ab); assay: Test Example 4: crop plant selectivity by upland field soil treatment (cotton), herbicidal effects; parameters: scale not given here; conditions: dose 6.3 g ai/10 a, evaluated 21st day after application
Protocol: as §4, §5

[18] = test system: common lambsquarters (Ch); assay: as above; parameters: scale not given here; conditions: dose 6.3 g ai/10 a, evaluated 21st day after application
Protocol: as §4, §5

[19] = test system: green foxtail (Se); assay: as above; parameters: scale not given here; conditions: dose 6.3 g ai/10 a, evaluated 21st day after application
Protocol: as §4, §5

[20] = test system: pale smartweed (Po); assay: as above; parameters: scale not given here; conditions: dose 6.3 g ai/10 a, evaluated 21st day after application
Protocol: as §4, §5

[21] = test system: slender amaranth (Am); assay: as above; parameters: scale not given here; conditions: dose 6.3 g ai/10 a, evaluated 21st day after application
Protocol: as §4, §5

[22] = test system: wheat (Tr); assay: Test Example 5: crop plant selectivity by upland field soil treatment (wheat), phytotoxicity; parameters: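 grade of crop injury; 5 = at least 90%; 4 = 70 to 90%; 3 = 50 to 70%; 2 = 30 to 50%; 1 = 10 to 30%; 0 = under 10%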; conditions: dose 6.3 g ai/10a, 21st day after application
Protocol: as §4
(§6) In a plastic pot (surface area: 600 cm^2) filled with sand, wheat (Tr), Diaitaria ciliaris (Di), green foxtail (Se), pale smartweed (Po), slender amaranth (Am), common lambsquarters (Ch) and China jute (Ab) were sown and covered with soil. […] The plants were then cultured in a green house, and the evaluation of the herbicidal effects and phytotoxicity was conducted on the 21st day after the application in accordance with the standards as identified in Table 47. Symbol—represents “not tested”.

[23] = test system: China jute (Ab); assay: Test Example 5: crop plant selectivity by upland field soil treatment (wheat), herbicidal effects; parameters: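 grade of growth control; 5 = at least 90%; 4 = 70 to 90%; 3 = 50 to 70%; 2 = 30 to 50%; 1 = 10 to 30%; 0 = under 10%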; conditions: dose 6.3 g ai/10a, 21st day after application
Protocol: as §4, §6

[24] = test system: common lambsquarters (Ch); assay: as above; parameters: scale not given here; conditions: dose 6.3 g ai/10a, 21st day after application
Protocol: as §4, §6

[25] = test system: green foxtail (Se); assay: as above; parameters: scale not given here; conditions: dose 6.3 g ai/10a, 21st day after application
Protocol: as §4, §6

[26] = test system: pale smartweed (Po); assay: as above; parameters: scale not given here; conditions: dose 6.3 g ai/10a, 21st day after application
Protocol: as §4, §6

[27] = test system: slender amaranth (Am); assay: as above; parameters: scale not given here; conditions: dose 6.3 g ai/10a, 21st day after application
Protocol: as §4, §6

[28] = test system: soybean (Gl); assay: Test Example 6: crop plant selectivity by upland field soil treatment (soybean), phytotoxicity; parameters: scale not given here; conditions: dose 6.3 g ai/10a, 21st day after application
Protocol: as §4
(§7) In a plastic pot (surface area: 600 cm^2) filled with sand, soybean (Gl), Diaitaria ciliaris (Di), green foxtail (Se), Johnsongrass (So), pale smartweed (Po), slender amaranth (Am), common lambsquarters (Ch) and China jute (Ab) were sown and covered with soil. […] The plants were then cultured in a green house, and the evaluation of the herbicidal effects and phytotoxicity was conducted on the 21st day after the application in accordance with the standards as identified in Table 47. Symbol—represents “not tested”.

[29] = test system: China jute (Ab); assay: Test Example 6: crop plant selectivity by upland field soil treatment (soybean), herbicidal effects; parameters: scale not given here; conditions: dose 6.3 g ai/10a, 21st day after application
Protocol: as §4, §7

[30] = test system: common lambsquarters (Ch); assay: as above; parameters: scale not given here; conditions: dose 6.3 g ai/10a, 21st day after application
Protocol: as §4, §7

[31] = test system: green foxtail (Se); assay: as above; parameters: scale not given here; conditions: dose 6.3 g ai/10a, 21st day after application
Protocol: as §4, §7

[32] = test system: pale smartweed (Po); assay: as above; parameters: scale not given here; conditions: dose 6.3 g ai/10a, 21st day after application
Protocol: as §4, §7

[33] = test system: slender amaranth (Am); assay: as above; parameters: scale not given here; conditions: dose 6.3 g ai/10a, 21st day after application
Protocol: as §4, §7

[34] = test system: corn (Ze); assay: Test Example 7: crop plant selectivity by upland field soil treatment (corn), phytotoxicity; parameters: scale not given here; conditions: dose 6.3 g ai/10a, 21st day after application
Protocol: as §4
(§8) In a plastic pot (surface area: 600 cm^2) filled with sand, corn (Ze), green foxtail (Se), pale smartweed (Po), slender amaranth (Am), common lambsquarters (Ch) and China jute (Ab) were sown and covered with soil. […] The plants were then cultured in a green house, and the evaluation of the herbicidal effects and phytotoxicity was conducted on the 21st day after the application in accordance with the standards as identified in Table 47.

[35] = test system: China jute (Ab); assay: Test Example 7: crop plant selectivity by upland field soil treatment (corn), herbicidal effects; parameters: scale not given here; conditions: dose 6.3 g ai/10a, 21st day after application
Protocol: as §4, §8

[36] = test system: common lambsquarters (Ch); assay: as above; parameters: scale not given here; conditions: dose 6.3 g ai/10a, 21st day after application
Protocol: as §4, §8

[37] = test system: green foxtail (Se); assay: as above; parameters: scale not given here; conditions: dose 6.3 g ai/10a, 21st day after application
Protocol: as §4, §8

[38] = test system: pale smartweed (Po); assay: as above; parameters: scale not given here; conditions: dose 6.3 g ai/10a, 21st day after application
Protocol: as §4, §8

[39] = test system: slender amaranth (Am); assay: as above; parameters: scale not given here; conditions: dose 6.3 g ai/10a, 21st day after application
Protocol: as §4, §8

Compound | Herbicidal effects Ec [1] | Herbicidal effects Sc [2] | Herbicidal effects Mo [3] | Herbicidal effects Di [4] | Herbicidal effects Ec [5] | Herbicidal effects Ch [6] | Herbicidal effects Po [7] | Herbicidal effects Ci [8] | Herbicidal effects Am [9] | Herbicidal effects Di [10] | Herbicidal effects Ec [11] | Herbicidal effects Ch [12] | Herbicidal effects Po [13] | Herbicidal effects Ci [14] | Herbicidal effects Am [15] | Phytotoxicity Go [16] | Herbicidal effects Ab [17] | Herbicidal effects Ch [18] | Herbicidal effects Se [19] | Herbicidal effects Po [20] | also measured
CCCON=Cc1cc(-c2ccc(C(F)(F)F)n(C)c2=O)c(F)cc1Cl [Compound 1-188] | 5 | 5 | 5 | 5 | 5 | 5 | 5 | 5 | 5 | 5 | 5 | 5 | 5 | 5 | 5 | 0 | 5 | 5 | 5 | 5 | Herbicidal effects Am [21]: 5; Phytotoxicity Tr [22]: 1; Herbicidal effects Ab [23]: 5; Herbicidal effects Ch [24]: 5; Herbicidal effects Se [25]: 5; Herbicidal effects Po [26]: 5; Herbicidal effects Am [27]: 5; Phytotoxicity Gl [28]: 1; Herbicidal effects Ab [29]: 5; Herbicidal effects Ch [30]: 5; Herbicidal effects Se [31]: 5; Herbicidal effects Po [32]: 5; Herbicidal effects Am [33]: 5; Phytotoxicity Ze [34]: 0; Herbicidal effects Ab [35]: 5; Herbicidal effects Ch [36]: 5; Herbicidal effects Se [37]: 5; Herbicidal effects Po [38]: 5; Herbicidal effects Am [39]: 5
CON=C(C)c1cc(-c2ccc(C(F)(F)F)n(C)c2=O)c(F)cc1Cl [Compound 1-192] | 5 | 5 | 5 | 5 | 5 | 5 | 5 | 5 | 5 | 5 | 5 | 5 | 5 | 5 | 5 | 0 | 5 | 5 | 5 | 5 | Herbicidal effects Am [21]: 5; Phytotoxicity Tr [22]: 2; Herbicidal effects Ab [23]: 5; Herbicidal effects Ch [24]: 5; Herbicidal effects Se [25]: 5; Herbicidal effects Po [26]: 5; Herbicidal effects Am [27]: 5; Phytotoxicity Gl [28]: 1; Herbicidal effects Ab [29]: 5; Herbicidal effects Ch [30]: 5; Herbicidal effects Se [31]: 5; Herbicidal effects Po [32]: 5; Herbicidal effects Am [33]: 5; Phytotoxicity Ze [34]: 2; Herbicidal effects Ab [35]: 5; Herbicidal effects Ch [36]: 5; Herbicidal effects Se [37]: 5; Herbicidal effects Po [38]: 5; Herbicidal effects Am [39]: 5
COc1cc(Cl)cc(F)c1-c1ccc(C(F)(F)F)n(C)c1=O [1′-1] | 5 | 5 | 5 | 5 | 5 | 5 | 5 | 5 | 5 | 5 | 5 | 5 | 5 | 5 | 5 | 0 | 5 | 5 | 5 | 5 | Herbicidal effects Am [21]: 5; Phytotoxicity Tr [22]: 1; Herbicidal effects Ab [23]: 5; Herbicidal effects Ch [24]: 5; Herbicidal effects Se [25]: 5; Herbicidal effects Po [26]: 5; Herbicidal effects Am [27]: 5; Phytotoxicity Gl [28]: 1; Herbicidal effects Ab [29]: 5; Herbicidal effects Ch [30]: 5; Herbicidal effects Se [31]: 5; Herbicidal effects Po [32]: 5; Herbicidal effects Am [33]: 5; Phytotoxicity Ze [34]: 1; Herbicidal effects Ab [35]: 5; Herbicidal effects Ch [36]: 5; Herbicidal effects Se [37]: 5; Herbicidal effects Po [38]: 5; Herbicidal effects Am [39]: 5
